pIC50: −log10 of the molar value. Several values for one entry are separate records, joined by “and”; a condition that tells them apart may be missing. Identical values can stand only once.
System: 327498-153-R-J2-PDC multicell spheroid viability
Experiment: Anticancer human tumor 327498-153-R-J2-PDC patient-derived uterine carcinosarcoma cell line growth inhibition [IpAb]
Settings: for viability, T/C: stronger effect = lower value
How it was run: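 Spheroids of 60% malignant cells, 25% HUVEC and 15% MSC were exposed to targeted agents combined with ipatasertib or abemaciclib. Doses started at or near clinical Cmax (10 microM when unknown) and fell in half-log steps.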

[1] = curve of first compound, second compound 0.1 µM
[2] = curve of first compound, second compound 0.316 µM
[3] = curve of first compound, second compound 1 µM
[4] = second compound 0.1 µM, first compound 0.0316 µM
[5] = second compound 0.1 µM, first compound 0.1 µM
[6] = second compound 0.1 µM, first compound 0.316 µM
[7] = second compound 0.1 µM, first compound 1 µM
[8] = second compound 0.1 µM, first compound 3.16 µM
[9] = second compound 0.1 µM, first compound 10 µM
[10] = second compound 0.316 µM, first compound 0.0316 µM
[11] = second compound 0.316 µM, first compound 0.1 µM
[12] = second compound 0.316 µM, first compound 0.316 µM
[13] = second compound 0.316 µM, first compound 1 µM
[14] = second compound 0.316 µM, first compound 3.16 µM
[15] = second compound 0.316 µM, first compound 10 µM
[16] = second compound 1 µM, first compound 0.0316 µM
[17] = second compound 1 µM, first compound 0.1 µM
[18] = second compound 1 µM, first compound 0.316 µM
[19] = second compound 1 µM, first compound 1 µM
[20] = second compound 1 µM, first compound 3.16 µM
[21] = second compound 1 µM, first compound 10 µM
[22] = curve of first compound, second compound 3.16 µM
[23] = curve of first compound, second compound 10 µM
[24] = second compound 3.16 µM, first compound 0.0316 µM
[25] = second compound 3.16 µM, first compound 0.1 µM
[26] = second compound 3.16 µM, first compound 0.316 µM
[27] = second compound 3.16 µM, first compound 1 µM
[28] = second compound 3.16 µM, first compound 3.16 µM
[29] = second compound 3.16 µM, first compound 10 µM
[30] = second compound 10 µM, first compound 0.0316 µM
[31] = second compound 10 µM, first compound 0.1 µM
[32] = second compound 10 µM, first compound 0.316 µM
[33] = second compound 10 µM, first compound 1 µM
[34] = second compound 10 µM, first compound 3.16 µM
[35] = second compound 10 µM, first compound 10 µM
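Wherever viability, T/C is given: 100% = DMSO vehicle control viability.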

| SMILES | pIC50 [1] | pIC50 [2] | pIC50 [3] | viability, T/C [4] [%] | viability, T/C [5] [%] | viability, T/C [6] [%] | viability, T/C [7] [%] | viability, T/C [8] [%] | viability, T/C [9] [%] | viability, T/C [10] [%] | viability, T/C [11] [%] | viability, T/C [12] [%] | viability, T/C [13] [%] | viability, T/C [14] [%] | viability, T/C [15] [%] | viability, T/C [16] [%] | viability, T/C [17] [%] | viability, T/C [18] [%] | viability, T/C [19] [%] | viability, T/C [20] [%] | further results |
| --- | --- | --- | --- | --- | --- | --- | --- | --- | --- | --- | --- | --- | --- | --- | --- | --- | --- | --- | --- | --- | --- |
| C=CC(=O)N1CCN(c2nc(=O)n(-c3c(C)ccnc3C(C)C)c3nc(-c4c(O)cccc4F)c(F)cc23)C(C)C1 (configuration not stated) + CCN1CCN(Cc2ccc(Nc3ncc(F)c(-c4cc(F)c5nc(C)n(C(C)C)c5c4)n3)nc2)CC1 | > 7.50 | > 7.50 | > 7.50 | 42.5 | 38.1 | 36.9 | 30.7 | 38.6 | 35.5 | 35.7 | 33.2 | 31.5 | 32.8 | 36.5 | 36.8 | 37 | 36.5 | 29.1 | 35.5 | 38.1 | pIC50 (curve of first compound, second compound 0.01 µM): 6.68; pIC50 (curve of first compound, second compound 0.0316 µM): > 7.50; viability, T/C (second compound 0.01 µM, first compound 0.0316 µM): 63.7%; viability, T/C (second compound 0.01 µM, first compound 0.1 µM): 52.8%; viability, T/C (second compound 0.01 µM, first compound 0.316 µM): 49%; viability, T/C (second compound 0.01 µM, first compound 1 µM): 44.5%; viability, T/C (second compound 0.01 µM, first compound 3.16 µM): 43%; viability, T/C (second compound 0.01 µM, first compound 10 µM): 42.2%; viability, T/C (second compound 0.0316 µM, first compound 0.0316 µM): 50.3%; viability, T/C (second compound 0.0316 µM, first compound 0.1 µM): 42.7%; viability, T/C (second compound 0.0316 µM, first compound 0.316 µM): 40%; viability, T/C (second compound 0.0316 µM, first compound 1 µM): 41.5%; viability, T/C (second compound 0.0316 µM, first compound 3.16 µM): 38%; viability, T/C (second compound 0.0316 µM, first compound 10 µM): 38.4%; viability, T/C [21]: 44.1% |
| Cn1nccc1Nc1nccc(-c2ccn(C(CO)c3ccc(Cl)c(F)c3)c(=O)c2)n1 (configuration not stated) + CC(C)NCC(C(=O)N1CCN(c2ncnc3c2C(C)CC3O)CC1)c1ccc(Cl)cc1 | 5.49 | 6.16 | > 7.50 | 87.2 | 77.7 | 71.4 | 71.7 | 47.9 | 28.4 | 68.3 | 59.6 | 49.1 | 51.7 | 40.9 | 22.5 | 49.2 | 42.4 | 33.8 | 38.2 | 30.5 | pIC50 [22]: > 7.50; pIC50 [23]: > 7.50; viability, T/C [21]: 11.9%; viability, T/C [24]: 33.9%; viability, T/C [25]: 30.4%; viability, T/C [26]: 28.1%; viability, T/C [27]: 27.7%; viability, T/C [28]: 20%; viability, T/C [29]: 9.15%; viability, T/C [30]: 28.5%; viability, T/C [31]: 21.5%; viability, T/C [32]: 18%; viability, T/C [33]: 17.3%; viability, T/C [34]: 15.8%; viability, T/C [35]: 4.13% |
| COc1c(OCCCN2CCOCC2)ccc2c3n(c(=NC(=O)c4cnc(N)nc4)nc12)CCN3 + CC(C)NCC(C(=O)N1CCN(c2ncnc3c2C(C)CC3O)CC1)c1ccc(Cl)cc1 | 7.34 | 7.45 | 8.38 | 58 | 33.3 | 16.8 | 9.2 |  |  | 52.1 | 27.5 | 15.2 | 8.52 |  |  | 32.4 | 21.1 | 9.37 | 7.49 |  | pIC50 [22]: > 8.50; pIC50 [23]: > 8.50; viability, T/C (second compound 0.1 µM, first compound 0.00316 µM): 81.6%; viability, T/C (second compound 0.1 µM, first compound 0.01 µM): 74.9%; viability, T/C (second compound 0.316 µM, first compound 0.00316 µM): 67.2%; viability, T/C (second compound 0.316 µM, first compound 0.01 µM): 67.5%; viability, T/C (second compound 1 µM, first compound 0.00316 µM): 53.5%; viability, T/C (second compound 1 µM, first compound 0.01 µM): 39.2%; viability, T/C (second compound 3.16 µM, first compound 0.00316 µM): 42.2%; viability, T/C (second compound 3.16 µM, first compound 0.01 µM): 33.3%; viability, T/C [24]: 23.6%; viability, T/C [25]: 15%; viability, T/C [26]: 8.38%; viability, T/C [27]: 5.77%; viability, T/C (second compound 10 µM, first compound 0.00316 µM): 34.2%; viability, T/C (second compound 10 µM, first compound 0.01 µM): 25.9%; viability, T/C [30]: 22.4%; viability, T/C [31]: 11.9%; viability, T/C [32]: 7.65%; viability, T/C [33]: 4.58% |
| CC1(C)CCC(CN2CCN(c3ccc(C(=O)NS(=O)(=O)c4ccc(NCC5CCOCC5)c([N+](=O)[O-])c4)c(Oc4cnc5[nH]ccc5c4)c3)CC2)=C(c2ccc(Cl)cc2)C1 |  |  |  |  |  |  |  |  |  |  |  |  |  |  |  |  |  |  |  |  | viability, T/C (compound 0.0316 µM): 100% and 102%; viability, T/C (compound 0.1 µM): 104% and 105%; viability, T/C (compound 0.316 µM): 108% and 112%; viability, T/C (compound 1 µM): 102% and 108%; viability, T/C (compound 3.16 µM): 107% and 98.3%; viability, T/C (compound 10 µM): 7.23% and 3.16%; pIC50 (curve of compound): 5.22 and 5.25 |
| CCN1CCN(Cc2ccc(Nc3ncc(F)c(-c4cc(F)c5nc(C)n(C(C)C)c5c4)n3)nc2)CC1 |  |  |  |  |  |  |  |  |  |  |  |  |  |  |  |  |  |  |  |  | viability, T/C (compound 0.01 µM): 92% [middle of 13 runs]; viability, T/C (compound 0.0316 µM): 72.6% [middle of 13 runs]; viability, T/C (compound 0.1 µM): 62.2% [middle of 13 runs]; viability, T/C (compound 0.316 µM): 57.3% [middle of 13 runs]; viability, T/C (compound 1 µM): 56.8% [middle of 13 runs] |
| C=CCn1c(=O)c2cnc(Nc3ccc(N4CCN(C)CC4)cc3)nc2n1-c1cccc(C(C)(C)O)n1 + CC(C)NCC(C(=O)N1CCN(c2ncnc3c2C(C)CC3O)CC1)c1ccc(Cl)cc1 | 6.59 | 6.82 | 7.00 | 90.3 | 83.2 | 43.2 | 3.61 | 3.91 | 6.69 | 73.8 | 65.2 | 22.6 | 3.04 | 3.47 | 6.17 | 49.6 | 50.5 | 17.3 | 3.25 | 2.88 | pIC50 [22]: > 7.50; pIC50 [23]: > 7.50; viability, T/C [21]: 5.72%; viability, T/C [24]: 45.1%; viability, T/C [25]: 35.2%; viability, T/C [26]: 11.5%; viability, T/C [27]: 3.53%; viability, T/C [28]: 3.4%; viability, T/C [29]: 4.64%; viability, T/C [30]: 30.4%; viability, T/C [31]: 27.4%; viability, T/C [32]: 8.25%; viability, T/C [33]: 3%; viability, T/C [34]: 3.44%; viability, T/C [35]: 4.49% |
| CCCS(=O)(=O)Nc1ccc(F)c(C(=O)c2c[nH]c3ncc(-c4ccc(Cl)cc4)cc23)c1F + CC(C)NCC(C(=O)N1CCN(c2ncnc3c2C(C)CC3O)CC1)c1ccc(Cl)cc1 | < 5.00 | < 5.00 | < 5.00 | 94.3 | 101 | 96.7 | 101 | 101 | 86.7 | 72.2 | 74 | 80.6 | 81.1 | 85.3 | 63 | 57.5 | 58.2 | 62.9 | 76.3 | 74.1 | pIC50 [22]: 5.63; pIC50 [23]: > 7.50; viability, T/C [21]: 49%; viability, T/C [24]: 49.6%; viability, T/C [25]: 50.3%; viability, T/C [26]: 52%; viability, T/C [27]: 56%; viability, T/C [28]: 54.4%; viability, T/C [29]: 42.1%; viability, T/C [30]: 40.1%; viability, T/C [31]: 41.8%; viability, T/C [32]: 44.2%; viability, T/C [33]: 40.7%; viability, T/C [34]: 41.2%; viability, T/C [35]: 23.4% |

Reference: PubChem BioAssay AID2060341 (Molecular Pharmacology Branch, DTP, NCI, 2025)
